Results taken from patent publication US20220117958A1, “COMPOSITIONS AND METHODS FOR INHIBITING ACSS2” (THE TRUSTEES OF THE UNIVERSITY OF PENNSYLVANIA, priority 2018, published 2022).
In brackets after ≈: the same amount, converted by molar mass. Several values for one entry are separate records, joined by “and”; a condition that tells them apart may be missing. Identical values can stand only once. Entries after “also recorded” stand apart in the source; their conditions may differ. Marks after values point to notes of the source that are not given here.

Columns and labels:
[1] = Turbidity-based aqueous solubility; assay type: physicochemical; settings: aqueous solution (composition not given), kinetic from dmso stock, read-out: highest soluble concentration
From the text: (§1) Table 20 provides results of in vitro and in vivo pharmacokinetics performed for each of the represented compounds.

[2] = Protein binding via Rapid Equilibrium Dialysis - plasma; assay type: in vitro ADME; settings: Rat (SD) plasma, 2 μM
From the text: as §1

[3] = Microsomal stability assay (half-life), human; assay type: in vitro ADME; settings: Human microsomes, read-out: Microsomal stability T1/2
From the text: as §1

[4] = Microsomal stability assay (half-life), mouse; assay type: in vitro ADME; settings: Mouse (CD1) microsomes, read-out: Microsomal stability T1/2
From the text: as §1

[5] = Microsomal stability assay (half-life), rat; assay type: in vitro ADME; settings: Rat (SD) microsomes, read-out: Microsomal stability T1/2
From the text: as §1

[6] = In vivo PK, oral gavage, plasma; set-up: species or system Rat (SD); settings: SD, rat, plasma, po, 5 mg/kg
From the text: as §1
(§2) Tables 4 and 5 depict the summary of rat plasma sample concentrations after administration of ADG I-204. FIG. 6 provides a summary of rat plasma and brain concentrations.

[7] = In vivo PK, IV dose, plasma; set-up: species or system Rat (SD); settings: for Plasma concentration, mean / Plasma concentration, individual animal: IV 1 mg/kg
From the text: as §1, §2

[8] = In vivo PK, IV dose, Terminal - brain (brain availability); set-up: species or system Rat (SD); settings: for Brain concentration, mean / Brain concentration, individual animal: IV 1 mg/kg
Description: Table 3 and FIG. 5 depict the brain availability of ADG I-204, ADG I-205, ADG I-206, and ADG I-207 after IV administration of 1 mg/kg dose.

[9] = system: H3K9ac; assay: Western blot, differentiated CAD cell lysates, H3K9ac levels; assay type: cell-based; settings: differentiated CAD cells, DMSO = 100.00%
From the text: as §1

[10] = system: mice; assay: Object-location memory paradigm; assay type: in vivo; settings: recall phase, versus DMSO injected
Description: FIG. 29 depicts a graph showing the time spent interacting with an individual object relative to the total time spent interacting with all objects.
To assess hippocampus-dependent spatial memory, an object-location memory paradigm is used. Animals explore three different objects during training, and long-term memory is tested by re-exposure 24 hours later with one object moved to a different location. In training, control and inhibitor treated mice show no difference in exploration. During memory retrieval, control mice show increased exploration of the object that had been moved. By contrast, mice treated with an ACSS2 inhibitor are impaired in spatial object memory and display a lower discrimination index.
The conditions were blind as it relates to the injection (DMSO versus ADG-205c) and the locations of objects (those in the same location versus novel location). An online stopwatch interface was used that allowed use 3 simultaneous timer, one for each object. Each timer was stopped individually as the mouse interacted with a given object. […] Some mice remained stationary for substantial amounts of time relative to the others—some appearing apprehensive huddled in a corner, some spending time grooming.

[11] = system: primary hippocampal neurons; assay: RNA-seq, acetate-induced transcription in primary hippocampal neurons; assay type: cell-based, mouse
Description: Alcohol and acetate have pleiotropic effects on brain circuitry and metabolism. Utilizing isolated mouse primary hippocampal neurons, the transcriptional response to supraphysiological levels of acetate (cells were cultured for one week after isolation and subsequently treated with 5 mM acetate for 24 hours) that mimics exogenous acetate influx during alcohol intake was investigated. Further, to determine the specific role of ACSS2 in transcriptional responses to acetate, a highly specific small molecule inhibitor of ACSS2 (ACSS2i ADG-205: C20H18N4O2S2, FIG. 15A) was employed.

[12] = In vivo PK, oral gavage, plasma; set-up: species or system Rat (SD); settings: Rat, PO 5 mg/kg, BQL limit 1.00 ng/mL, listed as ADG I-205, 5 mg/kg

solubility [1]: 5 µM (≈ 2.05 µg/mL) | Protein binding, plasma: % Protein free [2]: 0.2915 % Protein free | half-life at 2 μM [3]: 27.8 min | half-life at 2 μM [4]: 4.72 min | half-life at 2 μM [5]: 11.6 min | concentration at 0.25 h ([6]; Rat (SD), 0.25 hr, BQL = below quantitation limit (1.00 ng/mL), read-out: Plasma concentration, mean): 83.5 ng/mL | concentration at 0.5 h ([6]; Rat (SD), 0.5 hr, BQL = below quantitation limit (1.00 ng/mL), read-out: Plasma concentration, mean): 371 ng/mL | concentration at 1 h ([6]; Rat (SD), 1 hr, BQL = below quantitation limit (1.00 ng/mL), read-out: Plasma concentration, mean): 641 ng/mL | concentration at 4 h ([6]; Rat (SD), 4 hr, BQL = below quantitation limit (1.00 ng/mL)): 693 ng/mL | concentration at 8 h ([6]; Rat (SD), 8 hr, BQL = below quantitation limit (1.00 ng/mL), read-out: Plasma concentration, mean): 354 ng/mL | concentration at 24 h ([6]; Rat (SD), 24 hr, BQL = below quantitation limit (1.00 ng/mL), read-out: Plasma concentration, mean): 3.06 ng/mL | concentration at 1 h ([6]; Rat, 1.00 hr, BQL limit 1.00 ng/mL, read-out: Plasma concentration, individual animal): 466 ng/mL | Plasma concentration, mean ([7]; Rat (SD), 8 hr, terminal, listed as ADG I-205, 1 mg/kg): 29 ng/mL | Plasma concentration, mean ([7]; Rat (SD), 24 hr, terminal, BQL limit 1.00 ng/mL (ADG I-205: 2.00 ng/mL), 1 mg/kg): 3 ng/mL | Plasma concentration, individual animal ([7]; Rat, 1.00 hr, terminal, listed as ADG I-205, 1 mg/kg): 895 ng/mL and 1190 ng/mL | Plasma concentration, individual animal ([7]; Rat, 4.00 hr, terminal, BQL limit 1.00 ng/mL (ADG I-205: 2.00 ng/mL), 1 mg/kg): 187 ng/mL and 92.3 ng/mL | Plasma concentration, individual animal ([7]; Rat, 8.00 hr, terminal, BQL limit 1.00 ng/mL (ADG I-205: 2.00 ng/mL), 1 mg/kg): 27.0 ng/mL and 31.9 ng/mL | Plasma concentration, individual animal ([7]; Rat, 24.0 hr, terminal, BQL limit 1.00 ng/mL (ADG I-205: 2.00 ng/mL), 1 mg/kg): BQL | concentration at 0.083 h ([7]; SD, rat, plasma, iv, 1 mg/kg, Rat (SD), 0.083 hr, terminal, read-out: Plasma concentration, mean): 1630 ng/mL | concentration at 0.5 h ([7]; SD, rat, plasma, iv, 1 mg/kg, Rat (SD), 0.500 hr, not a terminal time point (animals 4, 5 and 6)): 3790 ng/mL | concentration at 1 h ([7]; SD, rat, plasma, iv, 1 mg/kg, Rat (SD), 1 hr, terminal, read-out: Plasma concentration, mean): 1040 ng/mL | concentration at 4 h ([7]; SD, rat, plasma, iv, 1 mg/kg, Rat (SD), 4 hr, terminal, read-out: Plasma concentration, mean): 140 ng/mL | concentration at 8 h ([7]; SD, rat, plasma, iv, 1 mg/kg, Rat (SD), 8 hr, terminal, read-out: Plasma concentration, mean): 29.1 ng/mL | concentration at 24 h ([7]; SD, rat, plasma, iv, 1 mg/kg, Rat (SD), 24 hr, terminal, BQL limit 1.00 ng/mL (ADG I-205: 2.00 ng/mL), read-out: Plasma concentration, mean): 2.63 ng/mL | concentration at 1 h ([7]; SD, rat, plasma, iv, 1 mg/kg, Rat, 1.00 hr, terminal, read-out: Plasma concentration, individual animal): 1030 ng/mL | concentration at 8 h ([7]; SD, rat, plasma, iv, 1 mg/kg, Rat, 8.00 hr, terminal, BQL limit 1.00 ng/mL (ADG I-205: 2.00 ng/mL), read-out: Plasma concentration, individual animal): 28.5 ng/mL | concentration at 24 h ([7]; SD, rat, plasma, iv, 1 mg/kg, Rat, 24.0 hr, terminal, BQL limit 1.00 ng/mL (ADG I-205: 2.00 ng/mL), read-out: Plasma concentration, individual animal): 2.63 ng/mL | Brain concentration, mean ([8]; Rat (SD), 4 hr, BQL limit 10.0 ng/g (204, 206), 20.0 ng/g (205, 207), listed as ADG I-205, 1 mg/kg): 23 ng/g | Brain concentration, mean ([8]; Rat (SD), 8 hr, BQL limit 10.0 ng/g (204, 206), 20.0 ng/g (205, 207)): BQL | Brain concentration, mean ([8]; Rat (SD), 24 hr, BQL limit 10.0 ng/g (204, 206), 20.0 ng/g (205, 207)): BQL | Brain concentration, individual animal ([8]; Rat, 0.0830 hr, third animal received only 70% of the test article, listed as ADG I-205, 1 mg/kg): 544 ng/g and 487 ng/g and 213*** ng/g | Brain concentration, individual animal ([8]; Rat, 1.00 hr, listed as ADG I-205, 1 mg/kg): 102 ng/g and 171 ng/g | Brain concentration, individual animal ([8]; Rat, 4.00 hr, BQL limit 10.0 ng/g (204, 206), 20.0 ng/g (205, 207), listed as ADG I-205, 1 mg/kg): BQL | Brain concentration, individual animal ([8]; Rat, 8.00 hr, BQL limit 10.0 ng/g (204, 206), 20.0 ng/g (205, 207)): BQL | Brain concentration, individual animal ([8]; Rat, 24.0 hr, BQL limit 10.0 ng/g (204, 206), 20.0 ng/g (205, 207)): BQL | concentration at 0.083 h ([8]; SD, rat, brain, iv, 1 mg/kg, Rat (SD), 0.083 hr): 415 ng/g | concentration at 1 h ([8]; SD, rat, brain, iv, 1 mg/kg, Rat (SD), 1 hr, read-out: Brain concentration, mean): 135 ng/g | concentration at 4 h ([8]; SD, rat, brain, iv, 1 mg/kg, Rat (SD), 4 hr, BQL limit 10.0 ng/g (204, 206), 20.0 ng/g (205, 207), read-out: Brain concentration, mean): 23.4 ng/g | concentration at 1 h ([8]; SD, rat, brain, iv, 1 mg/kg, Rat, 1.00 hr, read-out: Brain concentration, individual animal): 132 ng/g | concentration at 4 h ([8]; SD, rat, brain, iv, 1 mg/kg, Rat, 4.00 hr, BQL limit 10.0 ng/g (204, 206), 20.0 ng/g (205, 207), read-out: Brain concentration, individual animal): 23.4 ng/g | Plasma concentration, individual animal ([12]; 0.250 hr): 30.4 ng/mL and 73.0 ng/mL and 147 ng/mL | Plasma concentration, individual animal ([12]; 0.500 hr): 145 ng/mL and 298 ng/mL and 669 ng/mL | Plasma concentration, individual animal ([12]; 1.00 hr): 550 ng/mL and 906 ng/mL | Plasma concentration, individual animal ([12]; 4.00 hr): 710 ng/mL and 430 ng/mL and 938 ng/mL | Plasma concentration, individual animal ([12]; 8.00 hr): 531 ng/mL and 235 ng/mL and 297 ng/mL | Plasma concentration, individual animal ([12]; 24.0 hr): 3.51 ng/mL and 1.48 ng/mL and 4.19 ng/mL
Compound: COCCNC(=O)Nc1ccc2nc(-c3cccs3)c(-c3cccs3)nc2c1 [ADG-205c, 1-(2,3-di(thiophen-2-yl)quinoxalin-6-yl)-3-(2-methoxyethyl)urea]
Plasma concentration, individual animal ([7]; Rat, 0.0830 hr, terminal, third animal received only 70% of the test article, listed as ADG I-205, 1 mg/kg): 2310 ng/mL and 1700 ng/mL and 865*** ng/mL | Plasma concentration, individual animal ([7]; Rat, 0.500 hr, not terminal (animals 4, 5 and 6), listed as ADG I-205, 1 mg/kg): 8520** ng/mL and 1380 ng/mL and 1470 ng/mL | H3K9ac levels normalized to H3 and DMSO control ([9]; 1 uM): 21.62% | H3K9ac levels normalized to H3 and DMSO control ([9]; 5 uM): 17.18% | H3K9ac levels normalized to H3 and DMSO control ([9]; 10 uM): 14.26% | H3K9ac levels normalized to H3 and DMSO control ([9]; 20 uM): 21.52% | H3K9ac levels normalized to H3 and DMSO control ([9]; 50 uM): 29.67% | H3K9ac levels normalized to H3 and DMSO control ([9]; 100 uM): 16.42% | Preference for object moved to novel location (time interacting with object relative to all objects) [10]: very little preference for one object | Number of the 3613 acetate-induced genes that fail to be upregulated in the presence of inhibitor ([11]; 5 mM acetate, 24 hours, RNA-seq): 2107 genes | Slc17a7 induction upon acetate treatment ([11]; acetate, ACSS2 inhibited): induction was diminished | Acetate induction of ACSS2 target genes with alcohol-induced H3K9ac ([11]; hippocampal neurons ex vivo, acetate): blocks this gene induction | Acetate induction of ACSS2 target genes with alcohol-induced H3K27ac ([11]; hippocampal neurons ex vivo, acetate, listed as ACSS2i): failed to be induced; also recorded: blocks this gene induction | Regulation of acetate-induced genes by inhibitor in the absence of acetate ([11]; no acetate): not regulated
